The nature of test [1]: microbe, parasite or virus in culture. The note with it: Mycobacterium tuberculosis, 72 h, read-out: pIC50 (converted).
Test [2] in a line: microbe, parasite or virus in culture. The note with it: Mycobacterium tuberculosis, 96 h, read-out: pIC50 (converted).

This is an account of results in ChEMBL document CHEMBL3988442, “University of Dundee, Small-Polar-MMV Screening Library” (2021).

As for `COCc1ccc(CNc2cnn(C(C)(C)C)c(=O)c2Cl)cc1`, the IC50 in test [1] is above 50.1 µM; in test [2], 15.3 µM.
The matching figures for `CC(C)CCNC(=O)CCn1cc(Br)ccc1=O`: 142 µM and 105 µM.
The matching figures for `Cc1cc(CN2CCCC2)cc(Oc2ccc3c(c2)CC(CN)O3)c1` (stereo unspecified): above 50.1 µM and above 50.1 µM.
The matching figures for `Cc1nc(CNC(=O)c2cc(C3CC3)[nH]n2)cs1`: above 501 µM and above 501 µM.
Consider `CCOc1cccc(CSc2nc(=O)ccn2CC)n1`, for which the IC50 in test [1] was 460 µM; in test [2], above 501 µM.
For the molecule `CCNC(=O)c1cc2ccc(OC)cc2[nH]1`, the figures for the IC50 in test [1] and in test [2] were 283 µM and above 501 µM, respectively.
The matching figures for `CCNC(=O)NCC(C)Oc1cccc(OC)c1` (stereo unspecified): 254 µM and 301 µM.
The matching figures for `OCCCNC(c1ccccc1)c1ccccn1` (stereo unspecified): above 501 µM and above 501 µM.
On to `NCC(=O)N1CCCC(COc2ccc(F)cc2)C1` (stereo unspecified), for which the IC50 in test [1] was 220 µM; in test [2], above 501 µM.
The matching figures for `CN(c1ccc(F)cc1)S(=O)(=O)N1CCCCC1`: 204 µM and 267 µM.
Turning to `CC(C)(N)C(O)c1ccc(Br)cc1` (stereo unspecified), the IC50 in test [1] was 126 µM; in test [2], above 501 µM.
For the molecule `COCC1CCN(C(=O)c2cc(C3CC3)on2)CC1`, the IC50 is above 501 µM in test [1] and 26.5 µM in test [2].
Take `CC(C)CC1CCN(S(N)(=O)=O)C1` (stereo unspecified): the IC50 in test [1] and in test [2] was above 501 µM in each case.
For the molecule `COC(=O)[C@@H]1C[C@@H](O)CN1Cc1ncc(C(C)(C)C)o1`, the IC50 in test [1] and in test [2] was above 501 µM throughout.
On to `CCNC(=O)CN(CC)S(=O)(=O)c1ccc(C)cc1`, for which the values for the IC50 in test [1] and in test [2] were 295 µM and above 501 µM, respectively.
Regarding `Cc1ccc(C)c(-n2cc(CN3CC[C@@H](O)C3)c(-c3ccccc3)n2)c1`, the figures for the IC50 in test [1] and in test [2] were 27.1 µM and above 50.1 µM, respectively.
On to `CCc1ccc(C(=O)CSc2nnc(N)[nH]2)cc1`, for which the IC50 in test [1] was 176 µM; in test [2] it was 449 µM.
The matching figures for `Cc1nsc(C(=O)NCCc2ccccc2)n1`: 15.5 µM and 20.9 µM.
With `C=C(C)COCCNC(=O)c1c(O)cccc1F`, the IC50 in test [1] and in test [2] was above 501 µM each time.
For `CN(C)S(=O)(=O)N1CCCC1c1ccsc1` (stereo unspecified), the values for the IC50 in test [1] and in test [2] were 277 µM and above 501 µM, respectively.
Take `O=C(COC(=O)c1cccs1)c1ccc[nH]1`: the results for the IC50 in test [1] and in test [2] were 429 µM and 211 µM, respectively.
With `O=C(CNC1CC1)NCCc1ccc(F)cc1`, the IC50 in test [1] was 31.5 µM; in test [2] it was 63.6 µM.
The matching figures for `CC(C)N(C)S(=O)(=O)NC1CCOc2ccccc21` (stereo unspecified): 340 µM and above 501 µM.
The matching figures for `COc1ccc(CCCC(=O)N2CCC(CN)C2)cc1` (stereo unspecified): 230 µM and above 501 µM.
The matching figures for `NCC1CCN(CCc2ccccc2)C1` (stereo unspecified): 209 µM and 213 µM.
For `Nc1ccc(CNc2ccc(C(F)(F)F)nn2)cn1`, the IC50 in test [1] and in test [2] was above 501 µM in each case.
For the molecule `Fc1cnc(N2CCOCC3(CCCN(c4cnccn4)C3)C2)nc1` (stereo unspecified), the IC50 in test [1] and in test [2] was above 50.1 µM throughout.
As for `N[C@H]1CC[C@H](Oc2ncccc2Cl)CC1`, the IC50 was 125 µM in test [1] and above 501 µM in test [2].
The matching figures for `COc1ccccc1CNc1ccc(C#N)cn1`: 194 µM and 279 µM.
The matching figures for `CC(Sc1nc2ccccc2o1)C(=O)N1CCOCC1` (stereo unspecified): 19.2 µM and 11.7 µM.
Regarding `NCC(NS(=O)(=O)CCc1cccs1)C1CC1` (stereo unspecified), the IC50 in test [1] was 167 µM; in test [2], 47.8 µM.
As for `CCn1ncnc1CN1CC(Oc2ccccc2)C1`, the IC50 in test [1] was 151 µM; in test [2], above 501 µM.
The matching figures for `COCc1nn(Cc2cccc3cccnc23)c(=O)o1`: 16.8 µM and 51.6 µM.
As for `CNC(=O)CNC(=O)c1cc2ccccc2cc1OC`, the IC50 in test [1] and in test [2] was above 501 µM throughout.
Consider `CN(Cc1ccsc1)C(=O)CNC(=O)c1ccc(Br)o1`, for which the results for the IC50 in test [1] and in test [2] were 138 µM and 164 µM, respectively.
The matching figures for `Cc1cccnc1CN1CCOC(Cc2cccc3ccccc23)C1` (stereo unspecified): above 50.1 µM and above 50.1 µM.
On to `NCc1nc(-c2ccc(OC(F)(F)F)cc2)no1`, for which the values for the IC50 in test [1] and in test [2] were 70.7 µM and 190 µM, respectively.
On to `CC(C)c1ncc(C(=O)N2CCS(=O)(=O)CC2)cn1`, for which the IC50 in test [1] and in test [2] was above 501 µM in each case.
Consider `Cc1cc(C)c(C#N)c(N2CCC(Cc3ccccc3)CC2)n1`, for which the IC50 in test [1] and in test [2] was above 50.1 µM throughout.
Consider `CC(C)CCN1CCNC(=O)C1CC(=O)NCCc1cc(O)ncn1` (stereo unspecified), for which the IC50 in test [1] and in test [2] was above 50.1 µM each time.
As for `CC(=O)Nc1nc(C(=O)NCc2ccc(C)s2)cs1`, the IC50 was 224 µM in test [1] and 268 µM in test [2].
As for `O[C@@H]1CNC[C@H]1n1ccnn1`, the IC50 in test [1] was 286 µM; in test [2] it was 289 µM.
The matching figures for `Cc1ccc(C(N)CN2CCOCC2)cc1` (stereo unspecified): 448 µM and above 501 µM.
The matching figures for `NCC(=O)N1CCCC(CCc2ccc(F)c(F)c2)C1` (stereo unspecified): 190 µM and 183 µM.
The matching figures for `O=C(c1ccnn1COc1ccc(Cl)cc1)N1CCCC1`: above 50.1 µM and above 50.1 µM.
As for `Cc1ccc(CNCCOc2ccccn2)o1`, the IC50 in test [1] was above 501 µM; in test [2], 98.7 µM.
The matching figures for `Cc1cccc(NC(=O)C(C)Oc2ccc3c(c2)OCO3)n1` (stereo unspecified): 16 µM and 5.27 µM.
The matching figures for `CC(C)c1ccc(S(=O)(=O)C(C)C(N)=O)cc1` (stereo unspecified): 284 µM and 190 µM.
For the molecule `O=C(NCc1ccnc(N2CCCC2)c1)c1ccsc1`, the IC50 in test [1] is 114 µM; in test [2], 141 µM.
For the molecule `Cc1nc(C(=O)NCc2cccs2)ccc1C#N`, the results for the IC50 in test [1] and in test [2] were 82.4 µM and 64.4 µM, respectively.
The matching figures for `CN(Cc1ccccc1Br)C(=O)c1nccnc1N`: above 501 µM and above 501 µM.
The matching figures for `NCc1ccc(OC2CCCCC2)nc1`: above 501 µM and above 501 µM.
Take `Cc1cccc(NCCC(=O)NC2CCCC2)n1`: the values for the IC50 in test [1] and in test [2] were 122 µM and above 501 µM, respectively.
The matching figures for `CC(C)CCC(=O)N1CCN(CC(O)C(F)(F)F)CC1` (stereo unspecified): 42 µM and 30.2 µM.
The matching figures for `COCCC(=O)NCC(C)c1ccc(F)c(F)c1` (stereo unspecified): above 501 µM and above 501 µM.
The matching figures for `CCCc1nc(C)cc(N2CCC3(CCC(=O)N(CCO)C3)CC2)n1`: above 50.1 µM and above 50.1 µM.
Take `Cn1cncc1CN1CCCC1c1cncc(Oc2ccc(F)cc2)n1` (stereo unspecified): the IC50 in test [1] was 19.4 µM; in test [2], above 50.1 µM.
The matching figures for `CCCc1cc(C(=O)N2CCCN(C)CC2)cs1`: above 501 µM and above 501 µM.
The matching figures for `Nc1ccc(CNc2nc(C3CC3)ns2)cn1`: above 501 µM and above 501 µM.
The matching figures for `CN(Cc1ccc(Br)o1)C(=O)c1nccnc1N`: 210 µM and 414 µM.
Take `CCCOc1cccc(NC(=O)C(C)n2cncn2)c1` (stereo unspecified): the IC50 in test [1] was 370 µM; in test [2], 331 µM.
Regarding `Cn1c2c(c(=O)n1C)CN(C(=O)c1ccco1)CCC2`, the IC50 in test [1] and in test [2] was above 50.1 µM throughout.
For the molecule `CC(Nc1ccc(Br)cc1)c1nc(C2CC2)no1` (stereo unspecified), the IC50 in test [1] was 2.01 µM; in test [2], 0.994 µM.
For `COc1ccnc(N2CCCNCC2)n1`, the IC50 in test [1] was 229 µM; in test [2], above 501 µM.
For `COC(=O)CCCC(=O)N1CCC2(CCCC2)C1`, the IC50 is 180 µM in test [1] and 110 µM in test [2].
For the molecule `CC1Cc2ccccc2N(C(=O)c2csnn2)C1` (stereo unspecified), the IC50 in test [1] and in test [2] was above 501 µM in each case.
`Cc1nc(-c2cccc(N3CCC(N4CCCC4)CC3)c2)cs1`: the IC50 was above 50.1 µM in test [1] and 24.2 µM in test [2].
The matching figures for `CCNc1ccnc(N2Cc3cnn(Cc4ccc(F)cc4)c3C2)n1`: above 50.1 µM and 27.4 µM.
The matching figures for `COC(CNC(=O)N1CCSCC1)c1ccc(F)cc1` (stereo unspecified): above 501 µM and above 501 µM.
The matching figures for `Nc1nnnn1NCc1cccc(Cl)c1Cl`: above 50.1 µM and above 50.1 µM.
`CCOc1cc(C(=O)NCCCOC(C)C)ccn1`: the IC50 is 87.9 µM in test [1] and 137 µM in test [2].
Turning to `COCCC(C)Nc1c[nH]nc1-c1ccccn1` (stereo unspecified), the results for the IC50 in test [1] and in test [2] were 201 µM and above 501 µM, respectively.
Regarding `COC(=O)CN(C)Cc1cc(Br)cs1`, the IC50 in test [1] and in test [2] was above 50.1 µM in each case.
As to `CC(C)CNc1cccc(-n2cnnn2)c1`, the IC50 was 274 µM in test [1] and 247 µM in test [2].
The matching figures for `CNC(=O)[C@@H](C)Nc1ccc(C(F)(F)F)cn1`: above 501 µM and above 501 µM.
The matching figures for `FC(F)COCCn1nnc(-c2ccsc2)n1`: 255 µM and 56.4 µM.
The matching figures for `O=C(Cn1cccn1)NCCc1ccc2c(c1)OCO2`: 251 µM and above 501 µM.
Take `FC1(F)CCNCC12CCN(c1ncccn1)C2` (stereo unspecified): the IC50 in test [1] and in test [2] was above 50.1 µM each time.
`CC1CCCN(C(=O)c2nnn(-c3ccc(C(F)(F)F)cc3)n2)C1` (stereo unspecified): the IC50 was 18.3 µM in test [1] and 43.9 µM in test [2].
The matching figures for `CC(Nc1ccc(F)cc1)C(=O)N1CCCC1` (stereo unspecified): 106 µM and 68.6 µM.
The matching figures for `CC1CN(C(=O)c2cnsn2)c2cccc(Cl)c2O1` (stereo unspecified): 67.6 µM and above 501 µM.
The matching figures for `CC[C@H](N)C(=O)N(C)Cc1cccc(OC(F)(F)F)c1`: 199 µM and above 501 µM.
On to `CC(C)c1nccn1C1CCCN(C(=O)c2ccc3[nH]nnc3c2)C1` (stereo unspecified), for which the IC50 in test [1] and in test [2] was above 50.1 µM in each case.
